These results are taken from patent publication US9763996B2, “Polymyxin derivative and uses thereof” (Northern Antibiotics Ltd., priority 2015, dated 2017).

Converted amounts (≈) assume the structure as drawn. “And” between values parts separate entries of the source, which are not always exact repeats. Equal values may be shown once. Read-outs that look alike come from different tables or passages of the source. Where a SMILES comes first, the peptide text is derived from it. Bridges are numbered along the chain shown (N, C = ends). [ ]: non-standard residue; d: D form. The star is where a group is joined. Octanoyl = CCCCCCCC(=O)*; Dab = NCC[C@H](N)C(=O)O; Abu = CC[C@H](N)C(=O)O

The nature of data set [1]: Toxicokinetics (plasma and urine) in cynomolgus monkeys. To be noted: for AUC: plasma. The protocol: For seven days, the animals were dosed by intravenous (IV) infusion three times daily (TID) at a dose volume of 10 mL/kg for 1 hour (±10 minutes), 8±0.5 hours apart. The day of initial dose administration was designated study Day 1, with subsequent days consecutively numbered. Days prior to the initial dose administration were consecutively numbered with the final day of acclimation referenced as Day −1.
The following parameters were evaluated at designed intervals: clinical observations, body weights, clinical pathology (hematology, coagulation, serum chemistry, urinalysis including urine sediments and urine chemistry), toxicokinetics (plasma and urine) and anatomic pathology (kidney). In cases of animals sacrificed on an unscheduled basis, samples were taken on the day of the sacrifice.
Plasma and urine concentrations for toxicokinetic (TK) studies were determined by using liquid chromatograph interfaced with a mass spectrometer after precipitation of proteins. A sample (100 μL) was mixed with internal standard solution in water:formic acid (99:1 v/v; […]). Then, 600 μL of 100:1 acetonitrile:formic acid was added. The plates were centrifuged at 3200 rpm for 5 minutes. Using a Tomtec Quadra96, a 450 μL aliquot was transferred to a new 96-well plate and dried under nitrogen at 40° C. Then, 200 μL of water:methanol:formic acid (85:15:1 1 v/v) was added and the plate sealed for LC-MS/MS injection. LC-MS system consisted of Waters Acquity liquid chromatograph interfaced with a Thermo Scientific TSQ Quantitative triple quadrupole MS with ionization in the positive ion mode. Each sample (20 μL) was injected onto a Waters Acquity BEH Shield RP18 column (2.1×50 mm; 1.7 μm) equilibrated at 50° C. Mobile Phase A was 85:15:1 v/v water:methanol:formic acid. Mobile Phase B was 50:50:1 v/v acetonitrile:methanol:formic acid.
Peak area ratios from the calibration standard responses were regressed using a (1/concentration^2) linear fit for polymyxin B using colistin as the internal standard. For NAB739 and NAB815, peak areas from the calibration standard responses were regressed using a (1/concentration^2) quadratic fit (without the use of an internal standard).
The regression models were chosen based upon the behavior of the analytes across the concentration range used during development.
Toxicokinetic analysis was performed by using WinNonlin Phoenix version 6.3 software (Pharsight, Cary, N.C.). For plasma TK, noncompartmental IV infusion model was used.
In the cynomolgus monkey studies described in Example 3, where the peptides were administered as a 1-hour intravenous infusion three times daily, plasma and urine levels of the peptides were determined.

The subject of data set [2] is Escherichia coli C175-94. Nature of the data set: Murine urinary tract infection efficacy. In kind it is in vivo. The conditions noted are these: for dose-response in the CFUs in the bladder and in the kidneys: 0.25-2 mg/kg/dose s.c. twice a day. How it is done:
The study used 64 outbred, OF-1 female mice (Charles River, France) weighing 28-32 grams and Escherichia coli C175-94 (serotype O8:K48:H4), a clinical isolate elaborating type 1 fimbriae. The peptides were NAB815 (Lot 1054308) and polymyxin B (Sigma-Aldrich, batch BCBF8382V). The study was performed by Statens Serum Institut, Copenhagen, Denmark.
Three days before the start of the study and during the study, the mice had free access to 5% glucose in drinking water.
On day 0, the urine was removed from the bladder by gently pressing the abdomen. Thereafter, the mouse was anaesthetized with approximately 0.15 ml of Zoletil mix s.c. A syringe with polyethylene catheter (Becton Dickison) containing the bacterial suspension was inserted via the urethra into the bladder and 50 μl of the bacterial inoculum was slowly injected into the bladder. Thereafter, the mouse was left in the cage. Mice were kept in a warming cabinet and were under surveillance until fully awake.
After measuring the colony forming units (CFUs), the inoculum was determined to contain 9.38 log 10 CFU/ml, corresponding to 8.08 log 10 CFU/mouse.
On day 1 and day 2 postinfection, the mice were treated subcutaneously with solutions (0.2 ml) containing NAB815, polymyxin B or vehicle (0.9% NaCl) twice a day. The treatment groups (six mice in each) were the following: vehicle control; NAB815, 0.25 mg/kg/dose; NAB815, 0.5 mg/kg/dose; NAB815, 1 mg/kg/dose; NAB815, 2 mg/kg/dose; polymyxin B, 0.25 mg/kg/dose; polymyxin B, 0.5 mg/kg/dose; polymyxin B, 1 mg/kg/dose; and polymyxin B, 2 mg/kg/dose. In addition, one group served as a pretreatment control to help to assess as how the infection has proceeded before the start of the treatment on day 1 postinfection.
On days 1, 2 and 3 postinfection urine was sampled for colony counts. On day 1 postinfection (pretreatment control group) and on day 3 postinfection (all the other groups) after the urine sample was taken, mice were sacrificed by cervical dislocation and bladder and kidneys were removed aseptically. The bladder and kidneys were stored at −80° C. and later homogenized in 0.5 and 1 ml saline, respectively.
CFUs in urine were determined immediately within 2-3 hours after sampling. Frozen organs were thawed and homogenized with steel beads on a tissue lyser. All samples, urine, kidney and bladder, were 10 fold diluted in saline and 20-μl spots were applied on blood agar plates in duplicates. In addition, undiluted samples of urine (2-100 μl depending on the amount of urine) were spread on a separate agar plate to determine the lowest possible detection level of the colony counts. All agar plates were incubated 18-22 h at 35° C. in ambient air.

In data set [3] the test system is E. coli ATCC 25922. The conditions noted are these: E. coli ATCC 25922.
Data set [4] relates to K. pneumoniae ATCC 43816. The conditions noted are these: K. pneumoniae ATCC 43816.
The subject of data set [5] is K. pneumoniae JMI 27072. To be noted: K. pneumoniae JMI 27072.
For data set [6], the system named is A. baumannii ATCC 19606. The conditions noted are these: A. baumannii ATCC 19606.
In data set [7] the test system is P. aeruginosa JMI 7445. To be noted: P. aeruginosa JMI 7445.
The subject of data set [8] is K. pneumoniae JMI 27068.
Data set [9] has as its system A. baumannii CMI 417.
The mark [10] stands for this setting: of all 24 mice treated at 0.25-2 mg/kg/dose.
The mark [11] stands for this setting: in combination with rifampin 0.25 μg/mL.
Setting [12] is: alone, K. pneumoniae JMI 27068 (polymyxin-nonsusceptible).
Where [13] appears, read: in combination with rifampin 0.25 μg/mL, K. pneumoniae JMI 27068.
[14] abbreviates: in combination with rifampin 0.25 μg/mL, A. baumannii CMI 417.

Regarding `CCCCCCCC(=O)N[C@@H](CCN)C(=O)N[C@H](C(=O)N[C@@H](C(=O)N[C@H]1CCNC(=O)[C@H]([C@@H](C)O)NC(=O)[C@H](CCN)NC(=O)[C@H](CC)NC(=O)[C@H](CC(C)C)NC(=O)[C@@H](Cc2ccccc2)NC(=O)[C@H](CCN)NC1=O)[C@H](C)O)[C@@H](C)O` [NAB815, octanoyl-αDab-Thr-DThr-[cyclo-α,γDab-αDab-DPhe-Leu-Abu-αDab-Thr]] (Octanoyl-[Dab]T[dT][Dab][Dab][dF]L[Abu][Dab]T; lactam 4-C), the AUC in data set [1] (cynomolgus monkey, in vivo, 36 mg/kg/day, AUCs, dosed at 36 mg/kg/d, day 1) turned out to be 153 µg·h/mL; in data set [1] (cynomolgus monkey, in vivo, iv, 8 mg/kg, AUCs 0-8 h, after infusion of 8 mg/kg, day 1) it was 102 µg·h/mL; in [1] (cynomolgus monkey, in vivo, iv, 8 mg/kg, AUCs 0-8 h, after infusion of 8 mg/kg, day 7), 110 µg·h/mL; in data set [1] (cynomolgus monkey, in vivo, iv, 36 mg/kg/day, AUCs, dosed at 36 mg/kg/d, day 7), 205 µg·h/mL. Also, the dose excreted in [1] (female, cynomolgus monkey, in vivo, iv, 36 mg/kg/d, urinary recoveries (0-8 h urine collection), 36 mg/kg/d, day 7, each animal) turned out to be 33.9%. The “CFU levels in urine, day 3 vs pretreatment control day 1” value is “no significant differences” in data set [2] (0.25 mg/kg/dose s.c. twice a day, OF-1 female mice); “no significant differences” in data set [2] (0.5 mg/kg/dose s.c. twice a day, OF-1 female mice); “significant reduction of CFU levels in urine” in [2] (1 mg/kg/dose s.c. twice a day, OF-1 female mice, ** p<0.01); “significant reduction of CFU levels in urine” in data set [2] (2 mg/kg/dose s.c. twice a day, OF-1 female mice, * p<0.05). Further, in data set [2], the “dose-response in the CFUs in the bladder and in the kidneys” value is given as “showed a tendency of a dose-response”. Also, the “number of mice with bacterial levels below the detection limit in the kidneys” value in data set [2] (setting [10]) is listed as 20 mice. The “number of mice with bacterial levels below the detection limit in the urine” value in data set [2] (setting [10]) is reported as 8 mice. Also, the MIC is 2 µg/mL (≈ 1.7 µM) in [3] (alone); 1 µg/mL in data set [3] (setting [11]); 1 µg/mL in data set [4] (setting [11]); 2 to 4 µg/mL in data set [5] (alone); 4 µg/mL (≈ 3.4 µM) in [6] (alone); 0.5 to 2 µg/mL in data set [6] (setting [11]). For the same molecule, the MIC is 8 µg/mL (≈ 6.81 µM) in [7] (alone), 128 µg/mL (≈ 109 µM) in data set [8] (setting [12]), 4 µg/mL in data set [8] (setting [13]) and 2 µg/mL in data set [9] (setting [14]). Besides, the “MIC of rifampin in the presence of the peptide” value in data set [3] (peptide at 1 μg/mL) and in data set [4] (peptide at 1 μg/mL) was 0.25 µg/mL throughout. Also, the figures for the “factor of decrease of the MIC of rifampin” value in [3] (peptide at 1 μg/mL) and in data set [4] (peptide at 1 μg/mL) were 32 and 64, respectively.
As to Polymyxin B, the “0-8 h recovery in urine (of the dose)” value in data set [1] (after infusion of 8 mg/kg, given for each animal, 8 mg/kg) is 1% and 2% (2×). The “dose-response in the CFUs in the bladder and in the kidneys” value in data set [2] is “did not show any dose-response tendency”. Also, the “CFU levels in urine, day 3 vs pretreatment control day 1” value in data set [2] (any dose group (0.25, 0.5, 1, 2 mg/kg/dose) s.c. twice a day) was “no significant differences”. Besides, the “number of mice with bacterial levels below the detection limit in the urine” value in data set [2] (setting [10]) is reported as 1 mice. Also, the minimum inhibitory concentration (MIC) was 2 µg/mL in [3] (alone); 0.5 to 1 µg/mL in data set [3] (setting [11]); 2 µg/mL in [4] (alone); 0.5 to 1 µg/mL in data set [4] (setting [11]); 2 µg/mL in [5] (alone); 1 µg/mL in data set [5] (setting [11]). Also, the MIC in data set [6] (alone) is 2 µg/mL; in data set [6] (setting [11]) it was 0.5 µg/mL; in data set [7] (alone), 2 µg/mL; in data set [7] (setting [11]), 1 µg/mL; in [8] (setting [12]), 64 µg/mL; in data set [8] (setting [13]) it was 1 µg/mL. Also, the minimal inhibitory concentration (MIC) in data set [9] (alone, A. baumannii CMI 417 (polymyxin-nonsusceptible)) was determined as 32 µg/mL; in [9] (setting [14]) it was 1 µg/mL.

Usually AUC stands for the area under the concentration-time curve, a measure of exposure. Broadly, the MIC is the lowest concentration found to suppress growth.
